Our source for the melting point values is patent US8802678B2, “Carbonylated (aza) cyclohexanes as dopamine D3 receptor ligands” (Bioprojet, priority 2006, dated 2014).

What is called melting point is the temperature of the solid-liquid transition.

The compound `CCOc1ccccc1N1CCN(CC[C@H]2CC[C@H](NC(=O)CC#N)CC2)CC1` [Example 243, 2-Cyano-N-(4-{2-[4-(2-ethoxyphenyl)piperazin-1-yl]ethyl}cyclohexyl)acetamide] returned a melting point of 138 °C.
`CC(C)(C)c1nc(N2CCN(CC[C@H]3CC[C@H](NC(=O)CCC#N)CC3)CC2)cc(C(F)(F)F)n1` [Example 244]: the melting point came to 151 °C.
Under `N#CCC(=O)N[C@H]1CC[C@H](CCN2CCN(c3ccccc3Oc3ccccc3)CC2)CC1` [Example 245, 2-Cyano-N-(4-{2-[4-(2-phenoxyphenyl)piperazin-1-yl]ethyl}cyclohexyl)acetamide] stands 169 °C.
Under `N#CCC(=O)N[C@H]1CC[C@H](CCN2CCN(c3cccc(Cl)c3C#N)CC2)CC1` [Example 246, N-(4-{2-[4-(3-Chloro-2-cyanophenyl)piperazin-1-yl]ethyl}cyclohexyl)-2-cyanoacetamide] stands 232 to 233 °C; under `CCc1ccccc1N1CCN(CC[C@H]2CC[C@H](NC(=O)CC#N)CC2)CC1` [Example 247, 2-Cyano-N-(4-{2-[4-(2-ethylphenyl)piperazin-1-yl]ethyl}cyclohexyl)acetamide], 142 to 143 °C; under `Cc1ccc(Cl)cc1N1CCN(CC[C@H]2CC[C@H](NC(=O)CCCC#N)CC2)CC1` [Example 248, N-(4-{2-[4-(5-Chloro-2-methylphenyl)piperazin-1-yl]ethyl}cyclohexyl)-4-cyanobutanamide], 152 to 153 °C.
Then `Cc1cc(C)cc(N2CCN(CC[C@H]3CC[C@H](NC(=O)CCCC#N)CC3)CC2)c1` [Example 249, 4-Cyano-N-(4-{2-[4-(3,5-dimethylphenyl)piperazin-1-yl]ethyl}cyclohexyl)butanamide], with 169 °C.
Compound `CCc1cccc(N2CCN(CC[C@H]3CC[C@H](NC(=O)CC(F)(F)F)CC3)CC2)c1` [Example 250, N-(4-{2-[4-(3-Ethylphenyl)-piperazin-1-yl]ethyl}cyclohexyl)-3,3,3-trifluoropropanamide] displayed a melting point of 154 °C.
Under `CCc1cccc(N2CCN(CC[C@H]3CC[C@H](NC(=O)CCC#N)CC3)CC2)c1` [Example 251, 3-Cyano-N-(4-{2-[4-(3-ethylphenyl)piperazin-1-yl]ethyl}cyclohexyl)propanamide] stands 143 °C; under `N#CCCCC(=O)N[C@H]1CC[C@H](CCN2CCN(c3csc4cc(C(F)(F)F)ccc34)CC2)CC1` [Example 253, 4-Cyano-N-(4-{2-[4-(6-trifluoromethylbenzo[b]thiophen-3-yl)piperazin-1-yl]ethyl}cyclohexyl)butanamide], 169 °C.
Then `N#CCCCC(=O)N[C@H]1CC[C@H](CCN2CCN(c3cc(F)cc(F)c3)CC2)CC1` [Example 254, 4-Cyano-N-(4-{2-[4-(3,5-difluorophenyl)piperazin-1-yl]ethyl}cyclohexyl)butanamide], with 165 °C; and `CCc1ccc(N2CCN(CC[C@H]3CC[C@H](NC(=O)CC#N)CC3)CC2)c(CC)c1` [Example 255, 2-Cyano-N-(4-{2-[4-(2,4-diethylphenyl)piperazin-1-yl]ethyl}cyclohexyl)acetamide], with 183 °C.
Under `O=C(CC(F)(F)F)N[C@H]1CC[C@H](CCN2CCN(c3cccc(C(F)(F)F)c3F)CC2)CC1` [Example 256, 3,3,3-Trifluoro-N-(4-{2-[4-(2-fluoro-3-trifluoromethylphenyl)-piperazin-1-yl]ethyl}cyclohexyl)-propanamide] stands 198 °C; under `Cc1ccc(Cl)cc1N1CCN(CC[C@H]2CC[C@H](NC(=O)CCC#N)CC2)CC1` [Example 257, N-(4-{2-[4-(5-Chloro-2-methylphenyl)piperazin-1-yl]ethyl}cyclohexyl)-3-cyanopropanamide], 133 to 134 °C.
`Cc1c(Cl)cccc1N1CCN(CC[C@H]2CC[C@H](NC(=O)CCCC#N)CC2)CC1` [Example 258, N-(4-{2-[4-(3-Chloro-2-methylphenyl)piperazin-1-yl]ethyl}cyclohexyl)-4-cyanobutanamide] had a melting point of 180 to 183 °C.
As to `N#CCCCC(=O)N[C@H]1CC[C@H](CCN2CCN(c3cc(F)cc(Cl)c3)CC2)CC1` [Example 259, N-(4-{2-[4-(3-Chloro-5-fluorophenyl)piperazin-1-yl]ethyl}cyclohexyl)-4-cyanobutanamide], the melting point lay in the range of 158 to 159 °C.
Compound `COCC(=O)N[C@H]1CC[C@H](CCN2CCN(c3cccc(C(F)(F)F)c3F)CC2)CC1` [Example 260, N-(4-{2-[4-(2-Fluoro-3-trifluoromethylphenyl)piperazin-1-yl]ethyl}cyclohexyl)-2-methoxyacetamide] returned a melting point of 142 °C.
Under `N#CCCCC(=O)N[C@H]1CC[C@H](CCN2CCN(c3cc(Cl)cc(Cl)c3)CC2)CC1` [Example 261, 4-Cyano-N-(4-{2-[4-(3,5-dichlorophenyl)piperazin-1-yl]ethyl}cyclohexyl)butanamide trans/cis 98/2] stands 179 °C; under `N#CCCCC(=O)N[C@H]1CC[C@H](CCN2CCN(c3cccc4cccnc34)CC2)CC1` [Example 262, 4-Cyano-N-{4-[2-(4-quinolin-8-ylpiperazin-1-yl)ethyl]cyclohexyl}butanamide], 180 °C.
Then `CC(=O)CN1CCC(CCN2CCN(c3ccc4scnc4c3)CC2)CC1` [Example 264, 1-{4-[2-(4-Benzothiazol-5-ylpiperazin-1-yl)ethyl]piperidin-1-yl}propan-2-one], with 110 °C; and `O=C(CCC(F)(F)F)N[C@H]1CC[C@H](CCN2CCN(c3cccc(C(F)(F)F)c3)CC2)CC1` [Example 265, 4,4,4-Trifluoro-N-(4-{2-[4-(3-trifluoromethylphenyl)piperazin-1-yl]ethyl}cyclohexyl)butanamide], with 152 °C; and `N#CCCC(=O)N[C@H]1CC[C@H](CCN2CCN(c3ccccc3F)CC2)CC1` [Example 266, 3-Cyano-N-(4-{2-[4-(2-fluorophenyl)piperazin-1-yl]ethyl}cyclohexyl)propanamide], with 164 °C.
Then `Cc1cccc(C)c1N1CCN(CC[C@H]2CC[C@H](NC(=O)CC#N)CC2)CC1` [Example 267, 2-Cyano-N-(4-{2-[4-(2,6-dimethylphenyl)piperazin-1-yl]ethyl}cyclohexyl)acetamide], with 143 °C; and `N#CCC(=O)N[C@H]1CC[C@H](CCN2CCN(c3cccc(CO)c3)CC2)CC1` [Example 268, 2-Cyano-N-(4-{2-[4-(3-hydroxymethylphenyl)piperazin-1-yl]ethyl}cyclohexyl)acetamide], with 180 °C; and `CSc1cccc(N2CCN(CC[C@H]3CC[C@H](NC(=O)CCC#N)CC3)CC2)c1` [Example 269, 3-Cyano-N-(4-{2-[4-(3-methylsulfanylphenyl)piperazin-1-yl]ethyl}cyclohexyl)-propanamide], with 98 °C.
For the compound `COCc1cccc(N2CCN(CC[C@H]3CC[C@H](NC(=O)CC#N)CC3)CC2)c1` [Example 270, 2-Cyano-N-(4-{2-[4-(3-methoxymethylphenyl)piperazin-1-yl]ethyl}cyclohexyl)acetamide], the melting point came to 117 °C.
